From ChEMBL document CHEMBL1130729, “Synthesis and transporter binding properties of (R)-2 beta, 3 beta- and (R)-2 alpha, 3 alpha-diaryltropanes” (Bioorg Med Chem Lett, 1998)

Experiments:
[1] = molecular target: Sodium-dependent dopamine transporter (Rattus norvegicus, UniProt P23977); assay: Inhibitory activity against radioligand [3H]WIN-35428 binding at the dopamine transporter
[2] = molecular target: Norepinephrine transporter (Rattus norvegicus, UniProt Q9WTR4); assay: Inhibitory activity against radioligand [3H]nisoxetine binding at the norepinephrine transporter
[3] = molecular target: Sodium-dependent serotonin transporter (Rattus norvegicus, UniProt P31652); assay: Inhibitory activity against radioligand [3H]paroxetine binding at the serotonin transporter
Sequence of Sodium-dependent serotonin transporter (P31652 whole entry): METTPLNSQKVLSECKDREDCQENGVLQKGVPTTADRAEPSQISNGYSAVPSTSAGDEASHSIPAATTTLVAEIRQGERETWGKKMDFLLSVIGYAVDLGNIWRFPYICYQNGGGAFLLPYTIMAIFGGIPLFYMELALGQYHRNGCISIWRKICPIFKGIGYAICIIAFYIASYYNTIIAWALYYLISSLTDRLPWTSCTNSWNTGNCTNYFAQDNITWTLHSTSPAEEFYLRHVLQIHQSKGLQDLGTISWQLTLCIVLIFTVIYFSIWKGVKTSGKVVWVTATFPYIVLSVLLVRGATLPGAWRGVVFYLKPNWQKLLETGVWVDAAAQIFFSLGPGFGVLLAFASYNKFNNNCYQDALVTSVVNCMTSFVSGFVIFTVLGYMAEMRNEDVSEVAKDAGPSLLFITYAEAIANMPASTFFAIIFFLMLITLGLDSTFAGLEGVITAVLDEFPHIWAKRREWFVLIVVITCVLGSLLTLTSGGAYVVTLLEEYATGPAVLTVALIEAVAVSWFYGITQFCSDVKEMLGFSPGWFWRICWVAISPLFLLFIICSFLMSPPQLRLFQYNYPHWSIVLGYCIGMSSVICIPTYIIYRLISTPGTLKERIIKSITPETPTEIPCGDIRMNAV

Sequence of Norepinephrine transporter (Q9WTR4 whole entry): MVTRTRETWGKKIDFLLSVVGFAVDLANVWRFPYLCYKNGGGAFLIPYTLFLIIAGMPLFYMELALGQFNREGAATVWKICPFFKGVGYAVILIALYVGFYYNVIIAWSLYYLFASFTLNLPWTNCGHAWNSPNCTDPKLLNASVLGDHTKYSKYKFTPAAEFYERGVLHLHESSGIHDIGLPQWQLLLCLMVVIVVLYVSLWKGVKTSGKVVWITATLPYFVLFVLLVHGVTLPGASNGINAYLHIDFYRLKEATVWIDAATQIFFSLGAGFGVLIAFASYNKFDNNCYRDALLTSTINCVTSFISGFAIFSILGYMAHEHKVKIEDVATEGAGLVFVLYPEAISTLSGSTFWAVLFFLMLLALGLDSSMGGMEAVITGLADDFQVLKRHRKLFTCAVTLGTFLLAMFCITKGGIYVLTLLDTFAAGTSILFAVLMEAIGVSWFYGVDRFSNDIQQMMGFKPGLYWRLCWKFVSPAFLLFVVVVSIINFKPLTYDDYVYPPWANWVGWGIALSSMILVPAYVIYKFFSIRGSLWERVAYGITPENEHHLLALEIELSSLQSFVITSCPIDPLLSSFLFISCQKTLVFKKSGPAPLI
Sequence of Sodium-dependent dopamine transporter (P23977 whole entry): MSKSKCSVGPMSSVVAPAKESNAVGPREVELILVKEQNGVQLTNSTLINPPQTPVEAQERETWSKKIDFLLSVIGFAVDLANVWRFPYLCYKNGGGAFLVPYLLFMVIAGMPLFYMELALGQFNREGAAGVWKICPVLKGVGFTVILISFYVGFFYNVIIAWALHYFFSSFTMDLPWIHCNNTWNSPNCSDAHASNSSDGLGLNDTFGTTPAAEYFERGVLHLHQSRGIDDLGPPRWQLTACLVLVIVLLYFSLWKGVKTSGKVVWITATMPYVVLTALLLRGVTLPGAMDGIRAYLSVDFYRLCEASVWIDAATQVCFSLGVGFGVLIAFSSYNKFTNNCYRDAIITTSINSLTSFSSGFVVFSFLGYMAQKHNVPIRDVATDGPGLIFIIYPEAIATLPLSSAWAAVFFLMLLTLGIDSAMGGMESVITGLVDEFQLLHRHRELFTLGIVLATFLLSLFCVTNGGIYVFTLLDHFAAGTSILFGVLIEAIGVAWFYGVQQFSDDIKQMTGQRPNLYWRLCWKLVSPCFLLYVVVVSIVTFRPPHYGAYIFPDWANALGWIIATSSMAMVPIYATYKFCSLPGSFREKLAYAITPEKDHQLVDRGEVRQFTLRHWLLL

| Compound | IC50 [1] [nM] | IC50 [2] [nM] | IC50 [3] [µM] |
| --- | --- | --- | --- |
| CN1[C@@H]2CC[C@H]1C(c1ccccc1)C(c1ccccc1)C2 (mixture of isomers; form 1) | 28 | 2670 | 34.7 |
| CN1[C@@H]2CC[C@H]1C(c1ccccc1)C(c1ccccc1)C2 (mixture of isomers; form 2) | – | 2770 | 186 |
| CN1C2CC[C@@H]1C[C@@H](c1ccccc1)[C@@H]2c1ccccc1 (single isomer, unassigned; form 1) | 12.6 | 917 | 21.1 |
| CN1C2CC[C@@H]1C[C@@H](c1ccccc1)[C@@H]2c1ccccc1 (single isomer, unassigned; form 2) | 690 | 1040 | 41.3 |
| Cc1ccc(C2C[C@H]3CCC(C2c2ccccc2)N3C)cc1 (stereo in doubt; (R)-3b) | 1.96 | 479 | 11 |
| Cc1ccc(C2C[C@H]3CCC(C2c2ccccc2)N3C)cc1 (stereo in doubt; (R)-4b) | 429 | 4850 | 15.8 |
